Measured values: article PMC6949113, “Preclinical evaluation of AT-527, a novel guanosine nucleotide prodrug with potent, pan-genotypic activity against hepatitis C virus” (PLoS ONE, 2020)
Values joined by “and” are separate entries in the source; they are usually repeats but may differ in a detail not shown here. Equal entries are not always repeated. Marks after values point to notes of the source that are not given here.

What was measured:
[1] = Intracellular metabolism in human hepatocytes; assay type: in vitro ADME; conditions: human hepatocytes
Description: (§1) Hepatocytes. […] Cryopreserved male mouse (CD1), and fresh male Beagle dog and male cynomolgus monkey hepatocytes were obtained from BioreclamationIVT (Baltimore, MD) and were similarly plated with Matrigel in 6- or 24-well plates and maintained overnight in InVitroGRO™HI medium with Torpedo™ antibiotic (BioreclamationIVT). The protocol described above for measuring AT-511 and its metabolites in Huh-7 cells was repeated with the five different hepatocytes. Untreated cells were collected at 24 h, and the protein content of the cell lysates were determined using a bicinchoninic acid protein assay kit to assess the number of cells in each incubation. Separately, plated human hepatocytes were incubated for 6 h with 100 μM AT-511, followed by washout periods of 0, 2, 6, 18 and 30 h.
(§2) S3 Protocol. LC-MS/MS analysis of AT-511 and metabolites in cultured cells. The supernatant extracts of each hepatocyte and Huh-7 cell incubation were separately analyzed by four different LC-MS/MS methods for quantitation of phosphoramidates, nucleosides, monophosphates, and triphosphates (methods 1, 2, 3 and 4, respectively), using synthetic reference standards of actually and potentially present compounds and using structurally related analogs as internal standards. Briefly, a Luna PFP (2), 5 µm, 100 x 4.6 mm column and an AB Sciex API-6500 mass spectrometer (ESI positive ion, MRM mode) were used for methods 1-3 and an XBridge Oligonucleotide, BEH C18, 2.5 µm, 50 x 2.1 mm column and a Thermo QE Plus mass spectrometer (electrospray, negative ion mode) were used for method 4. For methods 1 and 2, mobile phases A (10 mM ammonium acetate in water) and B (acetonitrile:methanol, 1:1, v/v) were used to elute samples (5 µL) at 1 mL/min with 15% B for 1.5 min followed by a linear gradient to 75% B over 1 min (method 1) or with 54% B for 1.3 min followed by a linear gradient to 90% B over 1.2 min. Method 3 was the same except mobile phase A was 0.3% acetic acid in water, […] and samples were eluted with 3% B for 3 min followed by a linear gradient to 55% B over 1.2 min. For method 4, mobile phase A (3 mM ammonium formate with 10 mM dimethylhexylamine (DMHA) in water) and mobile phase B (3 mM ammonium formate with 10 mM DMHA in acetonitrile:water, 1:1, v/v) were used to elute samples at 0.4 mL/min with 0% B for 1.5 min followed by a linear gradient to 100% B over 2 min and ending with an isocratic elution for 0.5 min at 100% B.

[2] = Intracellular metabolism in mouse hepatocytes; assay type: in vitro ADME, mouse (CD1)
Description: as §1, §2

[3] = target: human mitochondrial RNA polymerase (POLRMT) (Homo sapiens, UniProt O00411); experiment: POLRMT nucleotide incorporation assay; assay type: biochemical
Chain of human mitochondrial RNA polymerase (POLRMT) (O00411 42-1230): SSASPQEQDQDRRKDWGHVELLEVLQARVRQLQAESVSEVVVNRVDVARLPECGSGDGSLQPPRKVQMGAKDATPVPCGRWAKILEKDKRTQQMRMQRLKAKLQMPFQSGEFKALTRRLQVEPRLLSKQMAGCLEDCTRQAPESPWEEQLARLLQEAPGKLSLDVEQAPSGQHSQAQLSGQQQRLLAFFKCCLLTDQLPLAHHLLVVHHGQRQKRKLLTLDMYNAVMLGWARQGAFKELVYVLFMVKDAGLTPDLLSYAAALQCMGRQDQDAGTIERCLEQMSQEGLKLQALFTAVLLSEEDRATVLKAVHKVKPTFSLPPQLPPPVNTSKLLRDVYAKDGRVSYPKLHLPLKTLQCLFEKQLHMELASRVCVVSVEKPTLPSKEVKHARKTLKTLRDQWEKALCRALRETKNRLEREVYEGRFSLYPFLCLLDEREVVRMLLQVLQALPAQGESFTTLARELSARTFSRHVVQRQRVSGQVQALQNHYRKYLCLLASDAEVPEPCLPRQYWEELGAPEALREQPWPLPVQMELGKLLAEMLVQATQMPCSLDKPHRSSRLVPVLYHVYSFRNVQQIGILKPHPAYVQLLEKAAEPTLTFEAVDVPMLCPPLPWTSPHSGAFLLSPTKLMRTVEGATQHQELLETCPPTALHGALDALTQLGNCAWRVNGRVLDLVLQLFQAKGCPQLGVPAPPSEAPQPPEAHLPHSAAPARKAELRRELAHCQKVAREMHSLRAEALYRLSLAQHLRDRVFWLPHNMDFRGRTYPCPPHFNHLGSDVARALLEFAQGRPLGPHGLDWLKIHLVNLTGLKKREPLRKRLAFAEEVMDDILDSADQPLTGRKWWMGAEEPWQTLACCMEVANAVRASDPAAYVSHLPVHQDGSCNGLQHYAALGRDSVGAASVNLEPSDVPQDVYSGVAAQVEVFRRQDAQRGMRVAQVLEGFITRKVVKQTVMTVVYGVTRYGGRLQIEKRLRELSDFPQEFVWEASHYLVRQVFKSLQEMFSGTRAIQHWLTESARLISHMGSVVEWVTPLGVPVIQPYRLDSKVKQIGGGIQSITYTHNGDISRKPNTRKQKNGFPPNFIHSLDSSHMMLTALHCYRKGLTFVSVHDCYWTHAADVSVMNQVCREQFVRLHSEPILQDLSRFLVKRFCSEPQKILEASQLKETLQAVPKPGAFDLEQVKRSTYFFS

[4] = Intracellular metabolism in dog hepatocytes; assay type: in vitro ADME, Beagle dog
Description: as §1, §2

[5] = Monkey PK study, liver and heart tissue levels; assay type: in vivo, cynomolgus monkey; conditions: monkey; for Mean Concentration at 4 hr Postdose, Heart: footnoted values extrapolated below LLOQ
From the text: Monkey PK study. Male non-naïve cynomolgus monkeys were obtained from Hainan Jingang Laboratory Animal Co., Ltd. (Hainan, China), group housed during the 5-day acclimation period or individually housed during the study in stainless steel mesh cages, provided ad libitum access to RO water, fed twice daily (~120 g Certified Monkey Diet daily; Beijing Vital Keao Feed Co., Ltd., Beijing, China) and given daily treats of fresh fruit. Additional environmental enrichment included classical music and cartoons. Three groups of 5 monkeys each were administered 30, 100 or 300 mg/kg AT-527 as a powder filled in empty porcine hard gelatin capsules (size 0). The monkeys were fasted overnight prior to dosing and fed 4 h after dosing. Three dosages were selected to provide assessments of dose proportionality, the top two representing potential doses for a repeated oral dose toxicity study in monkeys, and the lowest predicted to be more therapeutically relevant. A pill gun was used to place the capsule beyond the root of the animals’ tongues and their mouths were held loosely closed for approximately 30 sec to allow them to move the jaw and swallow the capsule. Immediately following capsule administration, 20 mL of water was given by mouth and then the mouth was opened to ensure the capsule was swallowed. Blood samples (~0.6 mL) were collected up to 72 h from three animals per dose group, and up to 4 h from the remaining two animals in each group, at the same time points described for rats. […] Blood samples were collected with a syringe from a peripheral blood vessel from restrained, non-sedated animals, immediately transferred to pre-chilled tubes containing ~1 mg K2EDTA•2H20 and 20 μL of 5 mM dichlorvos solution, mixed and placed on ice until plasma was prepared by centrifugation as described for rats. Immediately after centrifugation, plasma samples were extracted with 4 volumes ISS2, and the supernatants were clarified by centrifugation (12,000 rpm, 10 min, 4°C) and stored at ≤ -60°C until analyzed by LC-MS/MS as described below. After the 4-hr blood collection, two monkeys per dose group were anesthetized with intravenous injection of pentobarbital sodium (60 mg/kg) and then euthanized as described for rats. […] All analytes were quantitated by LC-MS/MS as described below.
For the analysis of AT-9010 in rat tissue homogenate supernatant, aliquots were diluted 1:2 with water and injected onto an Agilent Zorbax Extend C18 5 μm, 2.1 × 50 mm column and a Sciex API 4000 mass spectrometer (ESI positive ion, MRM mode). Mobile phases A (0.001% ammonia and 0.18 mM DBAA in water (1:1, v/v) and B (10 mM dimethylhexylamine (DMHA) and 3 mM AA in 50% ACN in water) were used to elute samples (60 μL) at 0.7 mL/min with 2% B for 0.8 min followed by a linear gradient to 30% B over 0.4 min, isocratic elution at 30% B for 0.4 min, a linear gradient to 95% B over 0.4 min, and ending with 95% B for 0.4 min. The analysis of AT-9010 in monkey tissue homogenate supernatant was the same except the sample injection volume was 20 μL. Attempts to measure tissue levels of other potentially formed TPs, including 2,6-diaminopurine-2’-F-2’-C-methylribosyl-5’-triphosphate and 2-amino-6-methylaminopurine-2’-F-2’-C-methylribosyl-5’-triphosphate (M2-TP), also used this method.
For the analysis of M2 and M3 in monkey tissue homogenate supernatant, aliquots were diluted 1:3 with water and injected onto an Acuity HSS T3 1.8 μm, 2.1 × 50 mm column and a Sciex API 6500 mass spectrometer (ESI positive ion, MRM mode). Mobile phases A (0.3% FA and 10 mM AA in water and B (0.3% FA and 10 mM AA in 95% ACN in water) were used to elute samples (1 μL) at 0.6 mL/min with 0% B for 0.4 min followed by linear gradients to 30% B over 0.5 min and to 95% B over 0.2 min, ending with isocratic elution at 95% B for 0.4 min.

Row | Structure (SMILES) | Mean Concentration at 4 hr Postdose, Liver ([5]; AT-527 30 mg/kg oral) | Liver/Heart Ratio ([5]; AT-527 30 mg/kg oral, 4 h) | Mean Concentration at 4 hr Postdose, Heart ([5]; AT-527 30 mg/kg oral) | Mean Concentration at 4 hr Postdose, Liver ([5]; AT-527 100 mg/kg oral) | Liver/Heart Ratio ([5]; AT-527 100 mg/kg oral, 4 h) | Mean Concentration at 4 hr Postdose, Heart ([5]; AT-527 100 mg/kg oral) | Mean Concentration at 4 hr Postdose, Liver ([5]; AT-527 300 mg/kg oral) [pmol/g] | Mean Concentration at 4 hr Postdose, Heart ([5]; AT-527 300 mg/kg oral) | further results
1 | C[C@@]1(F)[C@H](O)[C@@H](COP(=O)(O)OP(=O)(O)OP(=O)(O)O)O[C@H]1n1cnc2c(=O)[nH]c(N)nc21 [AT-9010] | 545 ± 349 pmol/g and 545 pmol/g | 11^b | 51.2^b pmol/g | 1890 ± 519 pmol/g and 1890 pmol/g | 31^b | 61.8^b pmol/g | 968 | 55.3^b pmol/g | AUC0-24, intracellular ([1]; 10 μM AT-511): 1363 pmol*h/10^6 cells; Cmax, intracellular ([1]; 10 μM AT-511, 0-24 h): 69.2 ± 8.8 pmol/10^6 cells; AUC0-24, intracellular ([2]; 10 μM AT-511): 1177 pmol*h/10^6 cells; Cmax, intracellular ([2]; 10 μM AT-511, 0-24 h): 85.4 ± 0.4 pmol/10^6 cells; Relative efficiency ([3]; (kpol/Kd,app)incorrect/(kpol/Kd,app)correct): 2.2 x 10^−6; Kd ([3]; POLRMT-catalyzed nucleotide incorporation, read-out: Kd,app): 204 ± 94 µM; kpol/Kd, app ([3]; efficiency of incorporation): 8.3 ± 4.0 x 10^−6 μM^-1s^-1; AUC0-24, intracellular ([4]; 10 μM AT-511): 229 pmol*h/10^6 cells; Cmax, intracellular ([4]; 10 μM AT-511, 0-24 h): 15.4 ± 6.6 pmol/10^6 cells; fold higher mean liver concentration than parent phosphoramidate ([5]; 30 mg/kg, 4 h): 34 fold
2 | C[C@@]1(F)[C@H](O)[C@@H](CO)O[C@H]1n1cnc2c(=O)[nH]c(N)nc21 [AT-273] | 267 pmol/g | 3.0 | 88.5 pmol/g | 672 pmol/g | 2.9 | 229 pmol/g | 939 | 444 pmol/g | intracellular levels of nucleoside metabolites ([1]; low to undetectable): < 10 pmol/10^6 cells; intracellular levels of nucleoside metabolites ([2]; low to undetectable): < 10 pmol/10^6 cells; intracellular levels of nucleoside metabolites ([4]; low to undetectable): < 10 pmol/10^6 cells; Liver/Heart Ratio ([5]; AT-527 300 mg/kg oral, 4 h): 2.1
